According to ChEMBL document CHEMBL6121021, “Design and Synthesis of Topoisomerases-Histone Deacetylase Dual Targeted Quinoline-Bridged Hydroxamates as Anticancer Agents” (J Med Chem, 2025):

Assays:
Histone deacetylase 11 = Histone deacetylase 11 (Homo sapiens, UniProt Q96DB2); test: Inhibition of HDAC11 (unknown origin)
[1] = biological target: T1, Protein deacetylase HDAC6 (Homo sapiens, UniProt Q9UBN7); test: Inhibition of HDAC6 (unknown origin)
T1 sequence (Q9UBN7 whole entry): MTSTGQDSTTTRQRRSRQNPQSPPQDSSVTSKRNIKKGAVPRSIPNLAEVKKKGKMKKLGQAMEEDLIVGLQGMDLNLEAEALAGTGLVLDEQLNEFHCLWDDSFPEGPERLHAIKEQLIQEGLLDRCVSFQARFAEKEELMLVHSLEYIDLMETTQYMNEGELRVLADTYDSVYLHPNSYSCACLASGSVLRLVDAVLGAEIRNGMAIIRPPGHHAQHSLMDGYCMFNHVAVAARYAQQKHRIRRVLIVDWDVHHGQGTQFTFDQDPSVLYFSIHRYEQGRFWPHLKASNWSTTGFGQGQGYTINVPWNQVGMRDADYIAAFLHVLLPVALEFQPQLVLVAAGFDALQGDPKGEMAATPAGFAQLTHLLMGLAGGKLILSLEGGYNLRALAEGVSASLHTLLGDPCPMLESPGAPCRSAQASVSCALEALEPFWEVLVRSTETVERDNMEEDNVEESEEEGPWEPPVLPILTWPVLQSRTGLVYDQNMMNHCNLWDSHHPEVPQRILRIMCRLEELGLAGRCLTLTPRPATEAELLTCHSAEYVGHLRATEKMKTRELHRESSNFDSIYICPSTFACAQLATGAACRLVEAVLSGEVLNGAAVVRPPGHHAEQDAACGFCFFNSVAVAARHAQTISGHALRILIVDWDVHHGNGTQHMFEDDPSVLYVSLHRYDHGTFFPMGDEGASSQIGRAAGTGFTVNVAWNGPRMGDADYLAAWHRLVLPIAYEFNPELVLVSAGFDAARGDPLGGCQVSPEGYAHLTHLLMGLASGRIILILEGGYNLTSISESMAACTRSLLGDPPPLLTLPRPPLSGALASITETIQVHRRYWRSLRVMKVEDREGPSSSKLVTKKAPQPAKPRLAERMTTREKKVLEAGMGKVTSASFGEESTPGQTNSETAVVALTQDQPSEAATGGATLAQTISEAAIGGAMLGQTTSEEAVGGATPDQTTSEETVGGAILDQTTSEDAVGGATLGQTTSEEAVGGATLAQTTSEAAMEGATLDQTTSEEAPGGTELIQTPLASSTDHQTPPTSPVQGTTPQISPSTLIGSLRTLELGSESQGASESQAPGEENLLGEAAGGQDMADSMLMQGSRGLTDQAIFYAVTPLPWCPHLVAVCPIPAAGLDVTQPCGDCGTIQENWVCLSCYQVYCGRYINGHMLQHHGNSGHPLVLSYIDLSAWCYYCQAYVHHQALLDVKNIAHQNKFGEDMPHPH

[2] = biological target: Polyamine deacetylase HDAC10 (Homo sapiens, UniProt Q969S8); test: Inhibition of HDAC10 (unknown origin)
Histone deacetylase 2 = Histone deacetylase 2 (Homo sapiens, UniProt Q92769); test: Inhibition of HDAC2 (unknown origin)
Histone deacetylase 1 = Histone deacetylase 1 (Homo sapiens, UniProt Q13547); test: Inhibition of HDAC1 (unknown origin)
Histone deacetylase 8 = biological target: T2, Histone deacetylase 8 (Homo sapiens, UniProt Q9BY41); test: Inhibition of HDAC8 (unknown origin)
T2 sequence (Q9BY41 whole entry): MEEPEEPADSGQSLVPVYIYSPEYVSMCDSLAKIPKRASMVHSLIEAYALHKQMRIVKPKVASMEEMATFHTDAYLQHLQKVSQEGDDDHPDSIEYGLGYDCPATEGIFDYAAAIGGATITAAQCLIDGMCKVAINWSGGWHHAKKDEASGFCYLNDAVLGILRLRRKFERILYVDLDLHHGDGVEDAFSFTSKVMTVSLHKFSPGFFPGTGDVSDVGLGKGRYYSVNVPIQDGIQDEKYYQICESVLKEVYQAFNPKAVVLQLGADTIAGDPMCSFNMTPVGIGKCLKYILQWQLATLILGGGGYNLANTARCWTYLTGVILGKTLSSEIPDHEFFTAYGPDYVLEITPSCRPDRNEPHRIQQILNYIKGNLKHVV

Histone deacetylase 3 = Histone deacetylase 3 (Homo sapiens, UniProt O15379); test: Inhibition of HDAC3 (unknown origin)
Histone deacetylase 4 = Histone deacetylase 4 (Homo sapiens, UniProt P56524); test: Inhibition of HDAC4 (unknown origin)
Chain of Histone deacetylase 4 (P56524 whole entry): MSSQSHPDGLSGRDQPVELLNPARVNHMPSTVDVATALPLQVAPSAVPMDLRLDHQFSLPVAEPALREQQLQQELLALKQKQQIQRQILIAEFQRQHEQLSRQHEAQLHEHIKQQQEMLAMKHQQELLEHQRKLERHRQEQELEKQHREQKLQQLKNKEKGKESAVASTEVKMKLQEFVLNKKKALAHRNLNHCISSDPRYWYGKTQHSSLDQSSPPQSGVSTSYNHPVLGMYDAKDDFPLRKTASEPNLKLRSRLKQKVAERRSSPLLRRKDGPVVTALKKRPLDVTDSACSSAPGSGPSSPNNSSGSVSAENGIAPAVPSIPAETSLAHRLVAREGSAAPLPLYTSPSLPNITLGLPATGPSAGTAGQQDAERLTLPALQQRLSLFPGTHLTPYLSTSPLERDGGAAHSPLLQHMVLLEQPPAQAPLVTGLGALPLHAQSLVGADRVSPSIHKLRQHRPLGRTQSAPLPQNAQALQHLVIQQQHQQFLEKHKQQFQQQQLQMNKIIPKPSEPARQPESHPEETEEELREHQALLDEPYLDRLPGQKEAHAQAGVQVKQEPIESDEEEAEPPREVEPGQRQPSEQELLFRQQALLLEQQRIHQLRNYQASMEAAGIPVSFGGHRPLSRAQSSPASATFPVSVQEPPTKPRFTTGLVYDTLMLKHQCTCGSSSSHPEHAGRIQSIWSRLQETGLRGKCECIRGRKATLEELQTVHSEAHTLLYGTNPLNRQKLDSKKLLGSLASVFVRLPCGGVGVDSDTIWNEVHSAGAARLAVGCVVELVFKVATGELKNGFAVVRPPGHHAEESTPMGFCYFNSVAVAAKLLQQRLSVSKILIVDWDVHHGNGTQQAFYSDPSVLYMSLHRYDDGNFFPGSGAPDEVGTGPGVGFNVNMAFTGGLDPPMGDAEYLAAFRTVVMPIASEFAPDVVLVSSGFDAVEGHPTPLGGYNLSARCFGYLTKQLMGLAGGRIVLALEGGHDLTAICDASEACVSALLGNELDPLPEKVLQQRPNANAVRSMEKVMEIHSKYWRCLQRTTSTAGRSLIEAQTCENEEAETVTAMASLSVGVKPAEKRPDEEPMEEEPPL

Chain of Histone deacetylase 2 (Q92769 whole entry): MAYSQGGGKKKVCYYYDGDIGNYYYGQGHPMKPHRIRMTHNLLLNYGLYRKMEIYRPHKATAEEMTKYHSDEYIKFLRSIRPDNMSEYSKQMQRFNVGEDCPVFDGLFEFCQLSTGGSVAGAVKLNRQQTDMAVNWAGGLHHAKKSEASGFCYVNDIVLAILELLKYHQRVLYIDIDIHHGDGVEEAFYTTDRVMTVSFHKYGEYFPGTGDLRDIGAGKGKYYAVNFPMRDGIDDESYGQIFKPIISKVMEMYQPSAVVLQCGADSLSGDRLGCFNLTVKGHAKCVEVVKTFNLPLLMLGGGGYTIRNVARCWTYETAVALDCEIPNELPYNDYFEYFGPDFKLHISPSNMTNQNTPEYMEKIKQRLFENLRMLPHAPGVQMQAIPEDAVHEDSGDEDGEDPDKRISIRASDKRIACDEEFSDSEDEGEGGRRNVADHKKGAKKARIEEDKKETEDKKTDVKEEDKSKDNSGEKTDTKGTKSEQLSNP
Chain of Histone deacetylase 3 (O15379 whole entry): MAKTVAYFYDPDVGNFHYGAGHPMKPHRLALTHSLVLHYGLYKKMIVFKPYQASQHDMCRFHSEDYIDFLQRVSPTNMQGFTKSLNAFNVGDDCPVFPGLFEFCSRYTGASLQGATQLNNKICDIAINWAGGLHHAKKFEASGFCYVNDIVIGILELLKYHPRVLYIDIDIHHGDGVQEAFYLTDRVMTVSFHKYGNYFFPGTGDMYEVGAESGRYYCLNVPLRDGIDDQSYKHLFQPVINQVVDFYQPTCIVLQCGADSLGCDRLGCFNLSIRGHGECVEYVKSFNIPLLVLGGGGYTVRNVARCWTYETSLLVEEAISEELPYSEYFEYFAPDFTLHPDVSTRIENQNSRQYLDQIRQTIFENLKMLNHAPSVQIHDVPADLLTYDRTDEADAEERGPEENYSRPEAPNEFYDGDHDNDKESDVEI
Chain of Polyamine deacetylase HDAC10 (Q969S8 whole entry): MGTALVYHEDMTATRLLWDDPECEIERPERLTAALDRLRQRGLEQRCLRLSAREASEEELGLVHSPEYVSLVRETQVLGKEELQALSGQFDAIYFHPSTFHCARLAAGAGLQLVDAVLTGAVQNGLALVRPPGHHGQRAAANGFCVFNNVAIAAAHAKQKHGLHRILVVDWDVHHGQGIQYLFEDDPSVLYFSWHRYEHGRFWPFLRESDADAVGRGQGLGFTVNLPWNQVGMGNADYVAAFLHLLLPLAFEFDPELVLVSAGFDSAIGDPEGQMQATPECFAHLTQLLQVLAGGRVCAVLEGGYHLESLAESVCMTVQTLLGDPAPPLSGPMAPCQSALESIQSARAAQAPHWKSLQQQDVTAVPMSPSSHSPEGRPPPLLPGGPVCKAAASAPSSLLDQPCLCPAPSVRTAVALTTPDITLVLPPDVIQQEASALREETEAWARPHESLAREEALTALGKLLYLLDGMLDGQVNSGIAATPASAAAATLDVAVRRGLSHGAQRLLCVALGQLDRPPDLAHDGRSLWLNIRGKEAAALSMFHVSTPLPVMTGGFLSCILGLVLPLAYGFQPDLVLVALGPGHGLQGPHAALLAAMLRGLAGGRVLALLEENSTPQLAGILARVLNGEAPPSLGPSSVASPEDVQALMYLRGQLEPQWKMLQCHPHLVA
Chain of Histone deacetylase 1 (Q13547 whole entry): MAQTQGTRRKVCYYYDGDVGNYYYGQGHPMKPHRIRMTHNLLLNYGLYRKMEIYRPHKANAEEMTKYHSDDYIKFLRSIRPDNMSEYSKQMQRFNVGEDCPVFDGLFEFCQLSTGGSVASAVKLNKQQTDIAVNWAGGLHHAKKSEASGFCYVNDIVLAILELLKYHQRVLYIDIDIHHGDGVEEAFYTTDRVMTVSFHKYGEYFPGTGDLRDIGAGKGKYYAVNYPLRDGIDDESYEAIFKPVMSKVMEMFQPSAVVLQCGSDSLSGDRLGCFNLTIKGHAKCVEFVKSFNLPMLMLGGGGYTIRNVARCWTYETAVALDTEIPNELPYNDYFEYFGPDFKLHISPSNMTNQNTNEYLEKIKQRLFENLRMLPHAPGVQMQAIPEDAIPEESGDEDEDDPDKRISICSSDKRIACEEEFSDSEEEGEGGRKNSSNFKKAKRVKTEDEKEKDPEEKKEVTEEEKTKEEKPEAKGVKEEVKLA
Chain of Histone deacetylase 11 (Q96DB2 whole entry): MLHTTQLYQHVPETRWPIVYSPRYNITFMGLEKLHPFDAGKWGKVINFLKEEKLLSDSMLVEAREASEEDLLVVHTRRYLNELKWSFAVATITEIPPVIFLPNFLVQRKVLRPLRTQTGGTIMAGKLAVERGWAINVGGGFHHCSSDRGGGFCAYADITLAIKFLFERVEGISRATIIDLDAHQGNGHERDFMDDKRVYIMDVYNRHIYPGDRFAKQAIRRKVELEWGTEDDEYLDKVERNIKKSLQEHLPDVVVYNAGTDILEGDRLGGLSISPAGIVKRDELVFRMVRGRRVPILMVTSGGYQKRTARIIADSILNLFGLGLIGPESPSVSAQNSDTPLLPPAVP

CN1c2ccccc2C(=O)N2[C@H](C(=O)Nc3ccc(C(=O)Nc4ccccc4N)cc3)Cc3c([nH]c4ccccc34)[C@@H]12 was tested, and the IC50 (Histone deacetylase 11) was greater than 100 nM, the IC50 [1] was greater than 100 nM and the IC50 [2] was 5.5 nM. For the same molecule, the IC50 (Histone deacetylase 2) was 10 nM, the IC50 (Histone deacetylase 1) was 0.16 nM and the IC50 (Histone deacetylase 8) was greater than 100 nM. For the same molecule, the IC50 (Histone deacetylase 3) was 27 nM and the IC50 (Histone deacetylase 4) was greater than 100 nM.
